These results are taken from patent publication US12403141B2, “Deuterated MK2 pathway inhibitors and methods of using the same” (ACLARIS THERAPEUTICS, INC., priority 2019, dated 2025).

Molecules are shown by their SMILES. “Also recorded” adds a separate entry of the source. Like-named read-outs stand apart in the source and are kept apart here.

Series [1] can be described thus: PO pharmacokinetics in male SD rats. Conditions: PO 2 mpk. The format is in vivo, rat. How it is done: (§1) Pharmacokinetic parameters of some examples were evaluated in male Sprague Dawley (SD) rats after intravenous (IV) and oral (PO) dosing. Male SD rats (5-6 weeks of age) were fasted for 12 hours before administration of the compound of interest. Animals were allowed access to food 2 h after dosing and water was given ad libitum. Except for the compound of Example 13, pharmacokinetic experiments comparing deuterium containing and non-deuterium containing compounds were performed at the same time using the same cohort of animals. The pharmacokinetic properties of the compound of Example 13 were evaluated separately and compared to previously generated data.
For oral (PO) dosing, a 0.2 mg/mL suspension of the test compound was prepared in a vehicle comprising 0.5% Tween-20 in 0.5% methyl cellulose in phosphate buffered saline (PBS). For a 2 mpk dose, 10 mL/kg of this dosing vehicle was administered by oral gavage. Blood samples from each animal was collected di-sodium EDTA coated containers at 0.25, 0.5, 1.0, 2.0, 4.0, 8.0 10.0 and 24.0 hours after dosing. Plasma was separated from the blood samples within 15 minutes following collection and stored at −20±5° C. before analysis.
A standard curve was generated from a stock solution of the test compound with known concentration in methanol. […]
Plasma samples collected from rats after dosing were allowed to reach room temperature. […] The supernatant (10 uL) was analyzed by LC-MS/MS (LC: Shimadzu SIL HTc, MS: MDS Sciex API-5500 & 4000 using 75%/25% acetonitrile/0.2% formic acid in Milli-Q water, flow rate: 1.0 mL/min, run time 3 minutes, Atlantis dC18(50×4.6 mm, 3 um; Waters®)) and the concentrations of the test compound in the plasma samples collected from rats at each time point were determined by comparison to the standard curve samples.
Pharmacokinetic parameters were calculated from the plasma concentrations at each time point using Phoenix WinNonlin (Version 7.0) by the non-compartmental analysis (NCA) method. […]

The subject of the next series is monkey hepatocytes. Nature of the series: In vitro metabolite profile in monkey hepatocytes. The format is in vitro ADME. Also on record: key to UV % at 280-290 nm or observed (+ or --), metabolite M387 (O-dealkylation) / UV % at 280-290 nm or observed (+ or --), metabolite M532b (Hydroxylation) / UV % at 280-290 nm or observed (+ or --), metabolite M532c (Hydroxylation) / UV % at 280-290 nm or observed (+ or --), metabolite M532d (Hydroxylation) / UV % at 280-290 nm or observed (+ or --), metabolite M563 (O-dealkylation + Glucuronidation) / UV % at 280-290 nm or observed (+ or --), metabolite M530b (Hydroxylation) / UV % at 280-290 nm or observed (+ or --), metabolite M530c (Hydroxylation) / UV % at 280-290 nm or observed (+ or --), metabolite M530d (Hydroxylation): +: only detected by MS; --: not detected or trace. Conditions: 10 μM; for UV % at 280-290 nm, Parent-T0 min: T0 min (normalized as 100%). How it is done:
Briefly, each test compound (final concentration of 10 μM containing 0.1% DMSO) was incubated with rat, dog, minipig, monkey, or human hepatocytes (final viable cell density of 1×10^6 cells/mL) at 37° C. with 5% CO2 in HI hepatocyte maintenance media (BIOIVT; Catalog #Z99009) for 120 minutes. Reactions were initiated by combining 200 μL of pre-warmed 2× dosing solution containing 20 μM test compound and 0.2% DMSO in HI maintenance media with 200 μL of pre-warmed hepatocyte solution containing 2×10^6 cells/mL in HI maintenance media. Samples were taken at 0 minutes (T0) and 120 minutes (T120) by quenching the reaction with 1200 μL acetonitrile. After quenching, the samples were sonicated for 2 minutes and then centrifuged at 1400 rpm for 5 minutes. A 1400-μL aliquot of the supernatant was evaporated under a stream of N2 until dry. The dried extracts were then reconstituted with 200 μL acetonitrile: H2O (1:3 v/v), vortexed for 2 minutes and centrifuged at 14000 rpm for 5 minutes. A 2-μL aliquot of the supernatant was injected onto a Xevo UPLC-UV-G2-S Q-Tof system (Waters®) with positive-ion electrospray ionization for analysis. Chromatographic separation was achieved on an Acquity UPLC®BEH C18 column (2.1×50 mm, 1.7 μm; Waters®) by gradient elution using varying proportions of mobile phase A (H2O with 0.1% formic acid) and mobile phase B (acetonitrile with 0.1% formic acid) at a constant flow rate of 400 μL/minute over a total run time of 10 minutes. LC-UV-MS extract ion chromatograms (EIC) of the T120 samples were compared to the T0 samples to identify the major putative metabolites which were named as Mm/z.

Series [2] in a line: IV pharmacokinetics in male SD rats. The format is in vivo, rat. Conditions: for clearance: male, Sprague-Dawley, rat, plasma, iv. How it is done: as §1
For IV dosing, a 0.5 mg/mL solution of the test compound was prepared in a vehicle consisting of 5% DMSO, 5% Cremophore, 90% normal saline. For a 1 mpk dose, 2 mL/kg of this dosing vehicle was administered to each rat by bolus injection into the tail vein. For lower doses, the dosing solution was diluted with the appropriate amount of vehicle. Example 3 was evaluated at 3 mpk by preparing a 1.5 mg/mL solution in the same vehicle and dosing 2 mL/kg. Blood samples from each animal was collected in di-sodium EDTA coated containers at 0.12, 0.25, 0.5, 1.0, 2.0, 4.0, 8.0 and 24.0 hours after dosing. Plasma was separated from the blood samples within 15 minutes following collection and stored at −20±5° C. before analysis.
A standard curve was generated from a stock solution of the test compound with known concentration in methanol. Working solutions having known concentrations ranging from 5-20,000 ng/mL were prepared from the stock solution by dilution with methanol:water (80:20 v/v). 5 uL of the working solutions were added to 45 uL of blank rat plasma to provide standard samples for analysis.
Plasma samples collected from rats after dosing were allowed to reach room temperature. A 50 uL aliquot of each plasma sample and the standard curve plasma samples were treated with 200 uL of acetonitrile containing an internal standard (100 ng/mL; warfarin/diclofenac) and mixed well. The samples were vortexed for 5 minutes followed by centrifugation for 5 minutes at 14000 rpm at 4° C. The supernatant (10 uL) was analyzed by LC-MS/MS (LC: Shimadzu SIL HTc, MS: MDS Sciex API-5500 & 4000 using 75%/25% acetonitrile/0.2% formic acid in Milli-Q water, flow rate: 1.0 mL/min, run time 3 minutes, Atlantis dC18(50×4.6 mm, 3 um; Waters®)) and the concentrations of the test compound in the plasma samples collected from rats at each time point were determined by comparison to the standard curve samples.
Pharmacokinetic parameters were calculated from the plasma concentrations at each time point using Phoenix WinNonlin (Version 7.0) by the non-compartmental analysis (NCA) method. Clearance values are reported as mL/min/kg. AUC values are reported as ng·h/mL.

Where [3] appears, read: 120 min, relative to parent at T0.

`Cc1cnc(-c2ccnc(C(C)(C)O)n2)cc1-n1c(C)cc(OCc2ncc(F)cc2F)c(Cl)c1=O` (atropisomer, axis not shown; (P)) [Example 1-H2, (P)-3-chloro-4-((3,5-difluoropyridin-2-yl)methoxy)-2′-(2-(2-hydroxypropan-2-yl)pyrimidin-4-yl)-5′,6-dimethyl-2H-[1,4′-bipyridin]-2-one] yielded an AUC0-10 hr in series [1] (± one standard deviation) of 854 ± 228 ng·h/mL. For the same compound, in the series with monkey hepatocytes (setting [3]), the “UV % at 280-290 nm or observed (+ or --), metabolite M387 (O-dealkylation)” value is recorded as 4.8%; the “UV % at 280-290 nm or observed (+ or --), metabolite M530b (Hydroxylation)” value was “--”; the “UV % at 280-290 nm or observed (+ or --), metabolite M530c (Hydroxylation)” value was “+”; the “UV % at 280-290 nm or observed (+ or --), metabolite M530e (Hydroxylation)” value is given as 1.5%. In the series on monkey hepatocytes (setting [3]), the “UV % at 280-290 nm or observed (+ or --), metabolite M563 (O-dealkylation + Glucuronidation)” value is “+”; the “UV % at 280-290 nm or observed (+ or --), metabolite M530d (Hydroxylation)” value was “--”; the “UV % at 280-290 nm, Parent-T120 min” value is given as 85.7%. Also, in the series on monkey hepatocytes, the “UV % at 280-290 nm, Parent-T0 min” value turned out to be 100.0%. Besides, in series [2] (IV 0.1 mpk, ± one standard deviation), the “IV clearance 0.1 mpk” value came out at 24 ± 4 mL/min/kg. Besides, the “IV clearance 0.3 mpk” value in series [2] (IV 0.3 mpk, ± one standard deviation) is on record as 23 ± 7 mL/min/kg. The “IV clearance 1 mpk” value in series [2] (IV 1 mpk, ± one standard deviation) is 24 ± 5 mL/min/kg.

As for `[2H]C([2H])(Oc1cc(C)n(-c2cc(-c3ccnc(C(C)(C)O)n3)ncc2C)c(=O)c1Cl)c1ncc(F)cc1F` (single isomer, unassigned) [Example 1-D2, (P)-3-Chloro-4-((3,5-difluoropyridin-2-yl)methoxy-d2)-2′-(2-(2-hydroxypropan-2-yl)pyrimidin-4-yl)-5′,6-dimethyl-2H-[1,4′-bipyridin]-2-one], the “effect of deuterium substitution on exposure after PO dosing (AUC)” value in series [1] (versus non-deuterated comparator, listed as Example 1) was “significantly higher exposure; also recorded: increased exposure”. For the same compound, in series [1] (Sprague-Dawley, rat, plasma, 2 mg/kg, ± one standard deviation, read-out: AUC0-10 hr), the AUC(0-t) was found to be 2020 ± 120 ng·h/mL. In the series on monkey hepatocytes (setting [3]), the “UV % at 280-290 nm or observed (+ or --), metabolite M387 (O-dealkylation)” value is reported as “+”; the “UV % at 280-290 nm or observed (+ or --), metabolite M532b (Hydroxylation)” value was “--”; the “UV % at 280-290 nm or observed (+ or --), metabolite M532c (Hydroxylation)” value is listed as “+”; the “UV % at 280-290 nm or observed (+ or --), metabolite M532d (Hydroxylation)” value is reported as “+”. In addition, the “UV % at 280-290 nm, Parent-T120 min” value with monkey hepatocytes (setting [3]) was found to be 96.6%. Also, the “UV % at 280-290 nm, Parent-T0 min” value with monkey hepatocytes was determined as 100.0%. The “effect of deuterium substitution on clearance” value in series [2] (IV, versus non-deuterated comparator Example 1-H2) is “clear and consistent reduction in clearance”. In addition, the clearance – broadly, a measure of how efficiently the substance is removed, as volume per time – in series [2] (0.1 mg/kg, IV 0.1 mpk, ± one standard deviation, read-out: IV clearance 0.1 mpk) is 16 ± 4 mL/min/kg. Also, in series [2] (0.3 mg/kg, IV 0.3 mpk, ± one standard deviation, read-out: IV clearance 0.3 mpk), the clearance came out at 12 ± 3 mL/min/kg. The clearance in series [2] (1 mg/kg, IV 1 mpk, ± one standard deviation, read-out: IV clearance 1 mpk) was 9.5 mL/min/kg.
